In EP0923292B1, “IMPROVED METHOD FOR SYSTEMIC ADMINISTRATION OF 2,4-DIENOIC ACID-TYPE INSECTICIDES TO TERRESTRIAL MAMMALS” (priority 1996, dated 1998):
Where two headings read alike, the source gives them in different places.

Key:
[1] = test system: adult cat fleas; assay: Flea ovicidal activity in vitro: artificial feeding system with treated beef blood (Examples 4 and 6); set-up: species or system C. felis; conditions: Ctenocephalides felis, read-out: Percent Inhibition of Flea Egg Hatching; for inhibition at 0.5 ppm: 0.5 ppm in beef blood; for inhibition at 5 ppm: 5.0 ppm in beef blood; for inhibition at 0.05 ppm: 0.05 ppm in beef blood
Text: For the in vitro tests, an artificial feeding system with cages for adult cat fleas C. felis was used as described by Wade, S.E., et al., J. Med. Ent. 25(3): 186-190 (May 1988). Inside each cage were placed 100 one-week-old, unfed adult C. fells. Each cage included a container for treated blood separated from the fleas by a PARAFILM® membrane, and a compartment containing thin strips of paper to support loosely arranged clean dog hair and to provide a foothold for the fleas as they fed on the blood through the membrane.
The artificial feeding system and cages for adult cat fleas described in Example 3 were used. Beef blood was used for the feeding system, and was prepared by adding 35 mL of a 20% sodium citrate solution per liter of blood to prevent clotting. A stock solution of lufenuron was prepared by adding 50.1 mg of technical lufenuron to 4.951 g of dimethyl sulfoxide (DMSO) to yield a 1.0% solution. A 1,000 ppm solution was then prepared by diluting 1.0 mL of the 1.0% solution in 9.0 mL of DMSO, and a 100 ppm solution was prepared by diluting 1.0 mL of the 1,000 ppm solution in 9.0 mL of DMSO. Dimethyl sulfoxide itself was used as a control. To treat the blood, the various solutions (0.05 mL) were added to the citrated beef blood (100.0 mL) to yield beef blood solutions containing 5.0 ppm, 0.5 ppm, 0.05 ppm, and 0.00 (zero) ppm lufenuron. Each solution was mixed thoroughly, and 10 mL at each concentration were placed in each of five feeders in the artificial feeding system to serve as replicates. Each day fresh blood solutions identical to the originals were placed in the feeders.
Flea eggs were collected from each replicate on days 3, 5 and 7. One hundred (100) healthy appearing […] were counted under a dissecting microscope from each replicate, divided into two subsamples per replicate, and placed in 60 mm x 15 mm plastic petri dishes. The samples were incubated at 78°F and 85% relative humidity for three days, then scored for larval hatch using by visual observation through the dissecting microscope. The data from all replicates at each concentration were combined to yield the mean percent egg hatch, and the percent inhibition of egg hatch was calculated relative to the control.
Retuming to (S)-methoprene, this example presents in vitro flea ovicidal activity using beef blood, for comparison with Example 4. Procedures using beef blood were the same as those indicated in the previous examples.

[2] = test system: C. Felis fleas; assay: Lufenuron systemic flea ovicidal activity upon oral administration to host dogs (Example 5); type: in vivo, C. felis (host: dogs); conditions: oral single doses of 10 mg/kg at Day 0 and Day 28
Procedure: Flea eggs were collected on Days -7, 0, 1, 2, 4, 7, and weekly thereafter through Day 63. Prior to egg collection, the cages in which the dogs were housed and the collection trays were rinsed with isopropyl alcohol, and the water was turned off, feed bowls and resting pads were removed from each cage. Trays covered with a screen made of […] hardware cloth were placed under the cages, and heavy white butcher paper was placed under the hardware cloth. After an interval of 14-16 hours, the paper was swept and the debris and flea eggs thus collected were transferred to a metal pan. The debris was separated from the eggs by sieving, and the eggs were placed in half-pint plastic cartons, then transferred to 10 cm x 10 cm glass plates. Using a dissecting microscope and a fine tipped artist brush, 100 flea eggs were counted from the sweepings of each dog and separated into four replicates of 25 eggs each. The eggs were placed in a 15 mm x 60 mm disposable plastic petri dish and incubated at 79-80°F and 80% relative humidity. Seventy two hours after collection, larvae emergence was determined. Both dead and live larvae were counted to determine the ovicidal effect of the treatment.
Six random bred and purebred, clinically healthy dogs, three male and three female, ranging in weight from 5.5 kg to 17.2 kg each and in age from 5 months to 42 months, and having hair coats ranging from medium to coarse and from 1.0 to 5.0 cm in length, were used. The dogs were divided into two treatment groups of three dogs each. The dogs were all maintained on regular feeding schedules of dog food and water, and each dog in one of the two groups was administered an appropriate number of lufenuron-containing gelatin capsules to achieve a dosage of 10 mg/kg of the body weight of the dog. This dosage is identified in the supplier's technical literature as the minimum effective dosage for C. felis in dogs, and the dosage that will result in a blood concentration level of 0.05 ppm remaining for at least 14 days after the administration of a single dose. Administration was performed at Day 0 and again at Day 28.
On Days -8 (eight days before the lufenuron administration), -4, 3, 10, 17, 24, 31, 38, 45, 52, and 59, approximately 100 unfed adult C. Felis fleas were applied to each dog by standard procedures. Flea eggs were collected and larval emergence (egg hatching) was determined by the procedures of Example 2 on Days -4, 0, 1, 2, 4, 7, 14, 21, 28, 35, 42, 49, and 56.

[3] = test system: C. felis; conditions: supplier's technical literature; cited from earlier work
[4] = remaining for at least 14 days after the administration of a single dose of 10 mg/kg; supplier's technical literature; cited from earlier work

## O=C(NC(=O)c1c(F)cccc1F)Nc1cc(Cl)c(OC(F)(F)C(F)C(F)(F)F)cc1Cl (stereo not drawn) [Lufenuron]
[1]; 72 h, day 3, low number of eggs produced in both controls and treated groups
  inhibition at 0.5 ppm: 80.6%
[1]; 72 h, day 3
  inhibition at 5 ppm: 100%
[1]; 120 h, day 5
  inhibition at 0.05 ppm: 10.8%
  inhibition at 0.5 ppm: 56.5%
  inhibition at 5 ppm: 99.8%
[1]; 168 h, day 7
  inhibition at 0.05 ppm: 6.9%
  inhibition at 0.5 ppm: 63.2%
  inhibition at 5 ppm: 100%
[2]; Day 1
  Percent Inhibition of Flea Egg Hatching: 39.9%
[2]; Day 2
  Percent Inhibition of Flea Egg Hatching: 70.6%
[2]; Day 4
  Percent Inhibition of Flea Egg Hatching: 54.5%
[2]; Day 7
  Percent Inhibition of Flea Egg Hatching: 54.1%
[2]; Day 14
  Percent Inhibition of Flea Egg Hatching: 52.1%
[2]; Day 21
  Percent Inhibition of Flea Egg Hatching: 10.7%
[2]; Day 28
  Percent Inhibition of Flea Egg Hatching: 0%
[2]; Day 35
  Percent Inhibition of Flea Egg Hatching: 48.6%
[2]; Day 42
  Percent Inhibition of Flea Egg Hatching: 0%
[2]; Day 49
  Percent Inhibition of Flea Egg Hatching: 72.7%
[2]; Day 56
  Percent Inhibition of Flea Egg Hatching: 20.5%
[3]
  minimum effective dosage for C. felis in dogs: 10 mg/kg
[4]
  blood concentration level: 0.05 ppm
